Experimental data from US20170137410A1, “FUSED CYCLOALKYL-PYRIMIDINE COMPOUNDS AND USES THEREOF” (Medivation Technologies, Inc., priority 2014, published 2017).

Assays:
Type in all cases: biochemical
[1] = target: T1, FLT3 (Homo sapiens, UniProt P36888); assay: HotSpot kinase assay against FLT3; settings: HotSpot 33P assay, ATP 10 μM
T1 sequence (P36888 27-993): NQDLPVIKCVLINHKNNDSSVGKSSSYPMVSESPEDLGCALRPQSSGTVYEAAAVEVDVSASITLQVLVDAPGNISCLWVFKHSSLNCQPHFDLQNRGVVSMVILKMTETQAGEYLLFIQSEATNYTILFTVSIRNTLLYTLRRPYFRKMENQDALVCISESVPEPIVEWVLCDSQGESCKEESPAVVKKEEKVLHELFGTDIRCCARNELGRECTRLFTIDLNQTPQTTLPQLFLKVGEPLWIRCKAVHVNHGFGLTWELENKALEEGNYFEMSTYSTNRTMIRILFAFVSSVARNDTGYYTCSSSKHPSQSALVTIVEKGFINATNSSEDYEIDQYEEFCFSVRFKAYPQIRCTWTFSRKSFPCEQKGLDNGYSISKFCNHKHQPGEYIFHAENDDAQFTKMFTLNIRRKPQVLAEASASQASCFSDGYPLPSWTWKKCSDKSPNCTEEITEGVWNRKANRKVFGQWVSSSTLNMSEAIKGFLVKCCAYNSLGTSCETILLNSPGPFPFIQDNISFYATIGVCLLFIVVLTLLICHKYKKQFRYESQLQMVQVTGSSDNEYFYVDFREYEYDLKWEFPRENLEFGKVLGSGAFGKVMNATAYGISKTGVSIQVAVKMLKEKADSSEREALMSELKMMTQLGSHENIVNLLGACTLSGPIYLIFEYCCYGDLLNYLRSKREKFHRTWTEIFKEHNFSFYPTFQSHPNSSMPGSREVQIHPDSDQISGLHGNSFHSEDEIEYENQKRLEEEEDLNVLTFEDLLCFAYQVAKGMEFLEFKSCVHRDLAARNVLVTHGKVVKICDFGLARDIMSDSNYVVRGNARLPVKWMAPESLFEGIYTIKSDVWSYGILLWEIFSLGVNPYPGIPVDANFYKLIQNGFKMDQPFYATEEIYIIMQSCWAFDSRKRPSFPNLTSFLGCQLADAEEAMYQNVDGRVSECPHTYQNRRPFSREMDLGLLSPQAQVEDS
Experimental: Kinase assays were performed using test compounds against a panel of FLT3 kinases: FLT3; FLT3 (D835Y); and FLT3 (ITD). Compounds were prepared as 10 mM stock solutions in DMSO prior to use in the assay. Each compound was tested at 10 concentrations with three-fold serial dilution starting at 1 μM against the three kinases. The control compound, staurosporine, was tested at 10 concentrations with four-fold serial dilution starting at 20 μM. IC50 values and curve fits were obtained using Prism (GraphPad Software). The screening was performed using the “HotSpot” assay platform. The assay measures the conversion of a peptide substrate to ^33P-labelled phosphorylated product. Briefly, specific kinase/substrate pairs along with required cofactors were prepared in reaction buffer. Specifically, the substrate was prepared in reaction buffer (20 mM Hepes, pH 7.5; 10 mM MgCl2; 1 mM EGTA; 0.02% Brij35; 0.02 mg/mL BSA; 0.1 mM Na3VO4; 2 mM DTT; 1% DMSO), followed by delivery of any required cofactor to the resulting substrate solution. The corresponding kinase was delivered into the substrate solution and the reaction mixture was mixed gently. Compound was delivered into the reaction mixture, followed 15-20 min later by addition of a mixture of ATP (Sigma, St. Louis Mo.) and ^33P ATP (specific activity 0.01 μCi/μL final; Perkin Elmer, Waltham, Mass.) to a final concentration of 10 μM to initiate the reaction. Reactions were carried out at RT for 120 min, followed by spotting of the reactions onto P81 ion exchange filter paper (Whatman #3698-915; Whatman Inc., Piscataway, N.J.). Unbound phosphate was removed by extensive washing of filters in 0.75% phosphoric acid. […] The percent of enzyme inhibition was calculated based on the percent of remaining kinase activity. IC50 values were determined.

[2] = target: T2, activated IR (Homo sapiens, UniProt P06213); assay: In vitro IR enzymatic assay (ADP-Glo); settings: ATP 50 μM
T2 construct: purchased Millipore 14-803
T2 sequence (P06213 28-1382): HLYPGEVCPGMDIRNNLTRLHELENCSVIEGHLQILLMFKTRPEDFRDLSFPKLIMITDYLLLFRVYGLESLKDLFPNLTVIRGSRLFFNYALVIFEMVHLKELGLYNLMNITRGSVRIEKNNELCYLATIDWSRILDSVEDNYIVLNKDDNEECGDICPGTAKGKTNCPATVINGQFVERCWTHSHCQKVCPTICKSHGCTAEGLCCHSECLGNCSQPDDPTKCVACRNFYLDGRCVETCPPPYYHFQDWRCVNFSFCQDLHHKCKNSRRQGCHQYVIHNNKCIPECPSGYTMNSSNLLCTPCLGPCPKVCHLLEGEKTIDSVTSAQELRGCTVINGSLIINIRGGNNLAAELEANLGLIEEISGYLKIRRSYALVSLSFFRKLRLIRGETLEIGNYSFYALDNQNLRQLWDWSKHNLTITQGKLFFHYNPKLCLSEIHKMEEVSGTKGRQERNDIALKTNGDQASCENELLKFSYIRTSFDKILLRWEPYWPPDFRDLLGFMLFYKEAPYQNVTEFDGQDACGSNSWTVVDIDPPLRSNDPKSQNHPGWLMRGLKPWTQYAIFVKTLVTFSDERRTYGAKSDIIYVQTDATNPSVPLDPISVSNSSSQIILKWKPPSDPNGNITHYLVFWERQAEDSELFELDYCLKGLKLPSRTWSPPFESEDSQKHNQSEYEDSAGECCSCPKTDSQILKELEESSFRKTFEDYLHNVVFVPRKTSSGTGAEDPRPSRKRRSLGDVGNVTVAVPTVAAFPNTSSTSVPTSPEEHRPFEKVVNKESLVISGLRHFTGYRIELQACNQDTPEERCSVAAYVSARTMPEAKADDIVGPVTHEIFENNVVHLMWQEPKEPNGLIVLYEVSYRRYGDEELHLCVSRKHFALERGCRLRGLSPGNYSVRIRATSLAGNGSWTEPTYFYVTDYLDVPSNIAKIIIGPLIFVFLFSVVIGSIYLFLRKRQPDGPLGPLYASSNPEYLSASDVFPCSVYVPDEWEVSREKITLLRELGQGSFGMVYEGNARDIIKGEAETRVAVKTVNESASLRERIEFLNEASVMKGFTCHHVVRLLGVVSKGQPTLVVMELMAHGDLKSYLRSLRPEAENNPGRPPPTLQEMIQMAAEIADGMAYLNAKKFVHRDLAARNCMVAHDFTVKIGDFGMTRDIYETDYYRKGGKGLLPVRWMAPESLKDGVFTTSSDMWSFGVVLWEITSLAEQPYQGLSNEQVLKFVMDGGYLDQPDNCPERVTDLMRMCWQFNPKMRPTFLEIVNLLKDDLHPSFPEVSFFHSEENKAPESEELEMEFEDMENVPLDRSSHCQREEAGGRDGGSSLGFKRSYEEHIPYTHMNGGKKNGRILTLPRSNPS
Experimental: Inhibition of IGF-1R and IR kinases by compounds described herein were tested. The IC50 values were measured in vitro using an ADP-Glo kinase assay Kit (Promega). For the IGF-1R assay, active recombinant IGF-1R (Millipore #14-802) was used at 1 ng/reaction, the substrate IGF-1R tide (Millipore #12-527) was used at 125 μM and ATP was used at 100 μM. For the IR assay, active recombinant IR (Millipore #14-803) was used at 1 ng/reaction, the substrate Axl tide (Millipore #12-516) was used at 125 μM and ATP at 50 μM. Kinase reactions in both assays were conducted at 30° C. for 20 min with increasing concentrations of the test compounds.
The assay results as the percent inhibition of binding are presented in Tables B2 and B3 for IGF-1R and IR respectively.

[3] = target: ABL2/ARG (Homo sapiens, UniProt P42684); assay: HotSpot kinase assay against ABL2/ARG; settings: HotSpot 33P assay, ATP 10 μM-30 μM
ABL2/ARG, sequence (P42684 whole entry): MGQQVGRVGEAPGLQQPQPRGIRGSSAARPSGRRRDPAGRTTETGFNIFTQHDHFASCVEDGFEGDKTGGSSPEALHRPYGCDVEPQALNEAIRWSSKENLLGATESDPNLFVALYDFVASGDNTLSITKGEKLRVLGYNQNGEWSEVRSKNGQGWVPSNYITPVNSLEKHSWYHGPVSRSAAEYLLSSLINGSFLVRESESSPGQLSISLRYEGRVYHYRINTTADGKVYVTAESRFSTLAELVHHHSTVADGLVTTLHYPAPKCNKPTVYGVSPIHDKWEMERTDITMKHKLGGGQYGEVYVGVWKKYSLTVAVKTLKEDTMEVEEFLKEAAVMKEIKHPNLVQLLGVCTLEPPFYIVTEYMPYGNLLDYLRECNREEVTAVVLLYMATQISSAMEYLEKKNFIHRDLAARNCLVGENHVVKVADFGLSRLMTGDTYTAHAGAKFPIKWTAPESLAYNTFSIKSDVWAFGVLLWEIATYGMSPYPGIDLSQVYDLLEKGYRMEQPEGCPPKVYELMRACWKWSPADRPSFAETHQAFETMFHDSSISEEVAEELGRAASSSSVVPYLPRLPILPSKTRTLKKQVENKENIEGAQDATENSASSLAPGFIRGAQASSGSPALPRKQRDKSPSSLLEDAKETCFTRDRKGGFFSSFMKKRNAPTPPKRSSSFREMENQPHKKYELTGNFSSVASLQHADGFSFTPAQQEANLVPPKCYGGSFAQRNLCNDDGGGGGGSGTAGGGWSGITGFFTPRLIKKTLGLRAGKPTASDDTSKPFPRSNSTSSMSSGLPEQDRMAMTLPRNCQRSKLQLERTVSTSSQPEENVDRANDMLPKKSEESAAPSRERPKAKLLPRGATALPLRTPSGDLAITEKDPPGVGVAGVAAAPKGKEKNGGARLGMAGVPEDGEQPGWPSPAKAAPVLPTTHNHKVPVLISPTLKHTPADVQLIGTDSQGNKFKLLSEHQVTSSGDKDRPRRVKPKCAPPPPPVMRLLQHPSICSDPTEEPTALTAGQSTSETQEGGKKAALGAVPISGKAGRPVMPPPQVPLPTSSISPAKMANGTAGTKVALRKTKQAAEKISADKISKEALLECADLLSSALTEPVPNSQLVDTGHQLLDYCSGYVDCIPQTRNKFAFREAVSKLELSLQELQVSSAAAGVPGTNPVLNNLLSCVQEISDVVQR
Experimental: (§1) The screening was performed using the “HotSpot” assay platform. The assay measures the conversion of a peptide substrate to ^33P-labelled phosphorylated product. Briefly, specific kinase/substrate pairs along with required cofactors were prepared in reaction buffer. Specifically, the substrate was prepared in reaction buffer (20 mM Hepes, pH 7.5; 10 mM MgCl2; 1 mM EGTA; 0.02% Brij35; 0.02 mg/mL BSA; 0.1 mM Na3VO4; 2 mM DTT; 1% DMSO), followed by delivery of any required cofactor to the resulting substrate solution. The corresponding kinase was delivered into the substrate solution and the reaction mixture was mixed gently. Compound was delivered into the reaction mixture, followed 15-20 minutes later by addition of a mixture of ATP (Sigma, St. Louis Mo.) and ^33P ATP (specific activity 0.01 μCi/μL final; Perkin Elmer, Waltham, Mass.) to a final concentration of 10 μM-30 μM to initiate the reaction. Reactions were carried out at RT for 120 min, followed by spotting of the reactions onto P81 ion exchange filter paper (Whatman #3698-915; Whatman Inc., Piscataway, N.J.). Unbound phosphate was removed by extensive washing of filters in 0.75% phosphoric acid. […] The percent of enzyme inhibition was calculated based on the percent of remaining kinase activity. IC50 values and curve fits were obtained using Prism (GraphPad Software).

[4] = target: ABL1 (Homo sapiens, UniProt P00519); assay: HotSpot kinase assay against ABL1; settings: HotSpot 33P assay, ATP 10 μM-30 μM
ABL1, sequence (P00519 whole entry): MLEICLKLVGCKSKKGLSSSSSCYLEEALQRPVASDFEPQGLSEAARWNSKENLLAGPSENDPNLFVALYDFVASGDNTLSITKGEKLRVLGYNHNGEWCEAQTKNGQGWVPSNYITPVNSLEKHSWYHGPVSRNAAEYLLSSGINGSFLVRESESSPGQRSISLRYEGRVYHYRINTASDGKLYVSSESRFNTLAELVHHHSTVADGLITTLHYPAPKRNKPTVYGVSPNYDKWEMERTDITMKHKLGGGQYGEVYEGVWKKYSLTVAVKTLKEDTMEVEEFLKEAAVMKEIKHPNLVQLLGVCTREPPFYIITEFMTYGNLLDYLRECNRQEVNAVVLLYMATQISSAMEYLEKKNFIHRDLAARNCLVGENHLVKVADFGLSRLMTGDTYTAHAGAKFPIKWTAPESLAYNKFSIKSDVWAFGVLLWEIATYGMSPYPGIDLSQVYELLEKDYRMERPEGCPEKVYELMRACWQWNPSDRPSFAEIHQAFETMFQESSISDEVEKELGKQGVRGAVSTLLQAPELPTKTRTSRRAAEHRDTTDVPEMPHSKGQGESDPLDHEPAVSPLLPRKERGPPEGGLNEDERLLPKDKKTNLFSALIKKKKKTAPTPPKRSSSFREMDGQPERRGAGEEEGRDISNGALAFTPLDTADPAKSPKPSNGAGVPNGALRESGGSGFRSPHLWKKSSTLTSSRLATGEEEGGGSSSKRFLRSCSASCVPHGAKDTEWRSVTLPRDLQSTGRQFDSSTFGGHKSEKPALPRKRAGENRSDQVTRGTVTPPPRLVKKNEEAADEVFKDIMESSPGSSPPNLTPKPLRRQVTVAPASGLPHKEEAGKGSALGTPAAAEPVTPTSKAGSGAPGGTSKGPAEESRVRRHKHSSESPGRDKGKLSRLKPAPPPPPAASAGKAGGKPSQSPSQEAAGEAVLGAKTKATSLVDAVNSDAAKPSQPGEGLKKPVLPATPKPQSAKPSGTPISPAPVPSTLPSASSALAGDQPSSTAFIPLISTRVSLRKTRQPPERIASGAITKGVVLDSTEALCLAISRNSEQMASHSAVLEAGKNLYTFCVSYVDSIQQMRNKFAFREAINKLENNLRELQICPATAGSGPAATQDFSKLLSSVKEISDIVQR
Experimental: as §1

Structure (SMILES) | IC50 [1] [nM] | IC50 [2] [nM] | IC50 [3] [nM] | IC50 [4] [nM] | inhibition at 1 µM ([2]; compound 1 μM) [%]
CC1(C(=O)N2CCC(F)(F)CC2)CCCN1c1nc2c(c(Nc3cc(C4CCCC4)[nH]n3)n1)CCC2 (racemic) [compound 146, (1-(4-((5-cyclopentyl-1H-pyrazol-3-yl)amino)-6,7-dihydro-5H-cyclopenta[d]pyrimidin-2-yl)-2-methylpyrrolidin-2-yl)(4,4-difluoropiperidin-1-yl)methanone] | 798 | > 30000 |  |  | 
CC(C)(C)c1cc(Nc2nc(N3CCC[C@@H]3C(=O)N3CCC(F)(F)CC3)nc3c2CCC3)n[nH]1 [142a, (R)-(1-(4-((5-(tert-butyl)-1H-pyrazol-3-yl)amino)-6,7-dihydro-5H-cyclopenta[d]pyrimidin-2-yl)pyrrolidin-2-yl)(4,4-difluoropiperidin-1-yl)methanone] | > 1000 | 2940 | > 1000 | > 1000 | 
CCC(=O)N1CCN(C(=O)[C@H]2CCCN2c2nc3c(c(Nc4cc(C5CCCC5)[nH]n4)n2)CCC3)CC1 [143a, 1-(4-((4-((5-cyclopentyl-1H-pyrazol-3-yl)amino)-6,7-dihydro-5H-cyclopenta[d]pyrimidin-2-yl)-D-prolyl)piperazin-1-yl)propan-1-one] | 13.9 | 650 | 398 | > 1000 | 
CCN(C(=O)[C@@H]1CCCN1c1nc2c(c(Nc3cc(C(C)C)[nH]n3)n1)CCC2)c1nccs1 [145b, (S)—N-ethyl-1-(4-((5-isopropyl-1H-pyrazol-3-yl)amino)-6,7-dihydro-5H-cyclopenta[d]pyrimidin-2-yl)-N-(thiazol-2-yl)pyrrolidine-2-carboxamide] | 155 | 670 |  |  | 
CCN(C(=O)[C@@H]1CCCN1c1nc2c(c(Nc3cc(C(C)(C)C)[nH]n3)n1)CCC2)c1nccs1 [144b, (S)-1-(4-((5-(tert-butyl)-1 H-pyrazol-3-yl)amino)-6,7-dihydro-5H-cyclopenta[d]pyrimidin-2-yl)-N-ethyl-N-(thiazol-2-yl)pyrrolidine-2-carboxamide] | > 1000 | 5960 | > 1000 | > 1000 | 
CCC(=O)N1CCN(C(=O)[C@@H]2CCCN2c2nc3c(c(Nc4cc(C5CCCC5)[nH]n4)n2)CCC3)CC1 [143b, (S)-1-(4-((4-((5-cyclopentyl-1H-pyrazol-3-yl)amino)-6,7-dihydro-5H-cyclopenta[d]pyrimidin-2-yl)prolyl)piperazin-1-yl)propan-1-one] | 58 | 17200 | > 1000 | > 1000 | 
CC(C)c1cc(Nc2nc(N3CCC[C@H]3C(=O)N(C)c3nccs3)nc3c2CCC3)n[nH]1 [68b, (S)-1-(4-((5-isopropyl-1H-pyrazol-3-yl)amino)-6,7-dihydro-5H-cyclopenta[d]pyrimidin-2-yl)-N-methyl-N-(thiazol-2-yl)pyrrolidine-2-carboxamide] | 112 | 364 | 41 | 316 | 77
CC(C)(C)c1cc(Nc2nc(N3CCC[C@H]3C(=O)N3CCC(F)(F)CC3)nc3c2CCC3)n[nH]1 [142b, (S)-(1-(4-((5-(tert-butyl)-1H-pyrazol-3-yl)amino)-6,7-dihydro-5H-cyclopenta[d]pyrimidin-2-yl)pyrrolidin-2-yl)(4,4-difluoropiperidin-1-yl)methanone] | > 1000 | 11600 | > 1000 | > 1000 | 
